Legend:
[1] = system: WEHI 164; assay: TNF-gamma activity on WEHI 164 cells (MTS cytotoxicity/proliferation, morphology); format: cell-based, mouse; parameters: key to Proliferation / Differentiation / Adhesion: The numbers of “+” indicate the relative level of activities.; ++: The numbers of “+” indicate the relative level of activities.; +++: The numbers of “+” indicate the relative level of activities.; “−” indicates no detected activity at the concentration range tested
Description: (§1) The adherent target cells were prepared from confluent cultures by trypsinization in PBS, and non-adherent target cells were harvested from stationary cultures and washed once with medium. Target cells were suspended at 3×10^5 cells/ml in medium containing 10% FCS. 0.1 ml aliquots were dispensed into 96-well flat-bottomed microtiter plates containing 0.1 ml serially diluted test samples of cells (WEHI 164 and L929). Incubation was continued for 70 hours. TNF-alpha, TNF-beta and bacterially-produced TNF-gamma were added at a 0.5 μg/ml concentration. The cytotoxicity and proliferation activity was quantified using an MTS assay performed by the addition of 20 μl of MTS and phenazine methosulfate (PMS) solution to each well. After a three hour incubation, the OD at 492 nm was measured by an ELISA plate reader. The OD492 is proportional to the number of viable cells in the wells. The percent of cytotoxicity was calculated as follows: […]. The photographs were taken after 72 hours.
In the graph of FIG. 7B, the assay was performed as described above, however, increasing amounts of TNF-alpha, TNF-beta and TNF-gamma were added to the cultures.

[2] = system: bovine pulmonary artery endothelial cells (BPAEC); assay: Endothelial cell apoptosis (morphology, Hoechst staining, DNA fragmentation); format: cell-based; conditions: BPAEC, 48 hours, Hoechst 33342
Description: [Bovine pulmonary artery endothelial cells were incubated with various concentrations of TNF-gamma for 48 hours. The apoptosis was assessed by nuclear staining with Hoechst 33342 fluorescence dye (10 mg/ml).] […] [U937 cells were transfected using lipofectamine (following manufacturer's instruction) with 0.2 mg of reporter plasmid (NF-kappaB-SEAP). The transfected U937 cells were collected and added to the 96-well plate ([…]/well) with various concentrated of TNF-gamma. After Incubation at 37° C. for 72 hr, the NF-kappaB activity was measured with luminometer at absorbance of 450 nm.]
Bovine pulmonary artery endothelia cells (BPAEC) were incubated with various concentrations of TNF-gamma for 48 hours. Apoptosis was assessed morphologically and by nuclear staining with Hoechst 33342 fluorescence dye (10 mg/ml) in triplicate. Live and apoptotic cells were scored in four random fields, about 1,000 cells were counted. The DNA fragmentation was analyzed as described previously.
BPAEC were obtained from the American Type Culture Collection (Rockville, Md., USA). The cells were grown in DMEM supplemented with 10% heat-inactivated FCS in a humidified environment of 5% CO2/[…] at 37° C. as previously described (Yue, T. L., et al., Mol. Pharmacol. 51:951-962 (1997)). Cells at a subconfluent density were used. Before experiments, the medium was changed to DMEM contained 2% FCS. BPAEC from passages 17-20 were used in all studies.
To quantify cells undergoing apoptosis, cell monolayers were fixed and stained with Hoechst […] (Molecular probe, Eugene, Oreg., USA) as described previously (Yue, T. L., et al., Mol. Pharmacol. 51:951-962 (1997)). The morphological features of apoptosis (cell shrinkage, chromatin condensation, blebbing, and fragmentation) were monitored by fluorescence microscopy. Transmission electron microscopy study was done as reported previously (Yue, T. L., et al., Mol. Pharmacol. 51:951-962 (1997)).
DNA ladder: Cells treated with vehicle or TNF-gamma-alpha were lysed in lysis buffer containing 100 mM NaCl, 10 mM Tris-HCl, pH 8.0, 2.5 mM EEDTA, 0.5% SDS, and 100 micrograms/ml […]. The lysates were incubated at 55° C. for 16 h. After incubation, the lysates were gently extracted three times with pheno/chloroform/isoamyl alcohol, precipitated in ethanol, treated with DNAse-free RNAse, re-extracted, and precipitated again as described previously. DNA electrophoresis was carried out in 1.8% agarose gels containing ethidium bromide, and DNA fragmentations were visualized under ultraviolet light.
In situ end-labeling (TUNEL): BPAEC were cultured in two-chamber slides (Nunc) and treated with TNF-gamma-alpha for 8 to 24 h. In situ detection of apoptotic cells was performed by using terminal deoxyribonucleotide transferase-mediated dUTP nick end labeling with an ApopTag in situ apoptosis detection kit (Oncor) following the manufacturer's recommendation.
The cells were plated in two-chamber slides. The cells were cotransfected with 0.5 μg/ml of Pegfp-c-1 (Clontech; Li, Y. and Horwitz, M. S. Biotechnology 23:1026-1028) as a fluorescent marker of transfected cells together with 1 μg/ml of either the empty cloning vector pcDNA1 (control) or the dominant-interfering c-Jun mutant pcDNA1-FlagΔ169 (Xia, Z., et al., Science 270:1326-1331 (1995)) using Calphos Maximizer Transfection Kit (Clontech) according to the manufacturer's recommendation. Following transfection, the cells were allowed to recover in complete medium for 24 h. The cells were treated with TNF-gamma-alpha and the number of apoptotic cells was assessed by nuclear staining after fixation as described in Methods.

[3] = system: THP-1; assay: TNF-gamma activity on THP-1 cells; format: cell-based; parameters: key: The numbers of “+” indicate the relative level of activities.; ++: The numbers of “+” indicate the relative level of activities.; +++: The numbers of “+” indicate the relative level of activities.; “−” indicates no detected activity at the concentration range tested; conditions: THP-1, human monocytic leukemia
[4] = system: HL-60; assay: TNF-gamma activity on HL-60 cells (incl. cell adhesion); format: cell-based, human; parameters: key to Proliferation / Differentiation / Adhesion: The numbers of “+” indicate the relative level of activities.; ++: The numbers of “+” indicate the relative level of activities.; +++: The numbers of “+” indicate the relative level of activities.; “−” indicates no detected activity at the concentration range tested
Description: as §1
To test adhesion ability of TNF-gamma, HL-60 cells were used and cell adhesion and cell-cell contact were measured by observation under the microscope and scored subjectively by two independent investigators. FIG. 11 illustrates the ability of TNF-gamma to induce cell adhesion. Cultures which were not treated with TNF-gamma contained cells which had spread throughout the culture dish.

[5] = HL-60, human promyelocytic leukemia

In the case of “TNF-gamma: new member of the tumor necrosis factor family; the term refers to TNF-gamma-alpha and/or TNF-gamma-beta”, the “inhibition of WEHI 164 cell growth” value ([1]; MTS assay, increasing amounts added (FIG. 7B)) is reported as “dose-dependent inhibitor of the growth”, the “morphology change (killed cells)” value ([1]; WEHI 164, 0.5 μg/ml, photographs after 72 hours (FIG. 7A)) is reported as “induced a morphology change which appeared as dark round cells (indicating killed cells)” and the Adhesion ([1]; WEHI 164, mouse fibrosarcoma) is reported as “−−”. The Differentiation ([1]; WEHI 164, mouse fibrosarcoma) was “−−”, the Proliferation ([1]; WEHI 164, mouse fibrosarcoma) was “−” and the apoptosis [2] was “induces apoptosis”. The Adhesion [3] was “++”, the Differentiation [3] was “++” and the Proliferation [3] was “−”. For the same substance, the Adhesion [4, 5] was “++”, the Differentiation [4, 5] was “−” and the Proliferation [4, 5] was “−”. The “cell adhesion and cell-cell contact” value ([4]; HL-60 cells, observation under the microscope (FIG. 11)) was “clearly aggregated together”.
